Data: ChEMBL document CHEMBL3779786, “Tabtoxinine--lactam is a stealth -lactam antibiotic that evades -lactamase-mediated antibiotic resistance” (Medchemcomm, 2016)
Converted amounts (≈) assume the structure as drawn. The source made the active and inactive calls. The rule behind the calls is not given here.

Legend:
[1] = Drug level assessed as 2 nM Escherichia coli DH5alpha beta lactamase TEM-1 mediated compound formation treated with benzyl penicillin at 1 mM after 30 mins by HPLC analysis; format: ADME; details: escherichia coli dh5[alpha], 0.5 h, 1000 µM
[2] = Drug level assessed as 1 uM Escherichia coli DH5alpha beta lactamase TEM-1 mediated compound formation treated with benzyl penicillin at 1 mM after 5 hrs by HPLC analysis; format: ADME; details: escherichia coli dh5[alpha], 1000 µM
[3] = Drug level assessed as 1 uM Escherichia coli DH5alpha beta lactamase CTX-M-9 mediated compound formation treated with benzyl penicillin at 1 mM after 5 hrs by LCMS analysis; format: ADME; details: escherichia coli dh5[alpha], 1000 µM
[4] = Drug level assessed as 2 nM Escherichia coli DH5alpha beta lactamase TEM-1 mediated compound formation treated with benzyl penicillin at 1 mM after 30 mins by LCMS analysis; format: ADME; details: escherichia coli dh5[alpha], 0.5 h, 1000 µM
[5] = Drug level assessed as 2 nM Escherichia coli DH5alpha beta lactamase CTX-M-9 mediated compound formation treated with benzyl penicillin at 1 mM after 30 mins by HPLC analysis; format: ADME; details: escherichia coli dh5[alpha], 0.5 h, 1000 µM
[6] = Drug level assessed as 1 uM Escherichia coli DH5alpha beta lactamase CTX-M-9 mediated compound formation treated with benzyl penicillin at 1 mM after 5 hrs by HPLC analysis; format: ADME; details: escherichia coli dh5[alpha], 1000 µM
[7] = Drug level assessed as 2 nM Escherichia coli DH5alpha beta lactamase CTX-M-9 mediated compound formation treated with benzyl penicillin at 1 mM after 30 mins by LCMS analysis; format: ADME; details: escherichia coli dh5[alpha], 0.5 h, 1000 µM
[8] = Drug level assessed as 1 uM Escherichia coli DH5alpha beta lactamase TEM-1 mediated compound formation treated with benzyl penicillin at 1 mM after 5 hrs by LCMS analysis; format: ADME; details: escherichia coli dh5[alpha], 1000 µM
[9] = Drug metabolism assessed as 2 nM Escherichia coli DH5alpha beta lactamase CTX-M-9 mediated metabolite formation at 1 mM after 30 mins by LCMS analysis; format: ADME; details: escherichia coli dh5[alpha], 0.5 h, 1000 µM
[10] = Drug metabolism assessed as 1 uM Escherichia coli DH5alpha beta lactamase TEM-1 mediated metabolite formation at 1 mM after 5 hrs by HPLC analysis; format: ADME; details: escherichia coli dh5[alpha], 1000 µM
Escherichia coli [11] = assay: Antibacterial activity against Escherichia coli ATCC 25922 in glutamine-free minimal media after 24 hrs by broth microdilution method; format: functional; details: ATCC 25922, 24 h
[12] = Drug metabolism assessed as 1 uM Escherichia coli DH5alpha beta lactamase CTX-M-9 mediated metabolite formation at 1 mM after 5 hrs by HPLC analysis; format: ADME; details: escherichia coli dh5[alpha], 1000 µM
[13] = Drug metabolism assessed as 2 nM Escherichia coli DH5alpha beta lactamase CTX-M-9 mediated metabolite formation at 1 mM after 30 mins by HPLC analysis; format: ADME; details: escherichia coli dh5[alpha], 0.5 h, 1000 µM
[14] = Drug metabolism assessed as 1 uM Escherichia coli DH5alpha beta lactamase TEM-1 mediated metabolite formation at 1 mM after 5 hrs by LCMS analysis; format: ADME; details: escherichia coli dh5[alpha], 1000 µM
[15] = Drug metabolism assessed as 2 nM Escherichia coli DH5alpha beta lactamase TEM-1 mediated metabolite formation at 1 mM after 30 mins by HPLC analysis; format: ADME; details: escherichia coli dh5[alpha], 0.5 h, 1000 µM
[16] = Drug metabolism assessed as 1 uM Escherichia coli DH5alpha beta lactamase CTX-M-9 mediated metabolite formation at 1 mM after 5 hrs by LCMS analysis; format: ADME; details: escherichia coli dh5[alpha], 1000 µM
[17] = Drug metabolism assessed as 2 nM Escherichia coli DH5alpha beta lactamase TEM-1 mediated metabolite formation at 1 mM after 30 mins by LCMS analysis; format: ADME; details: escherichia coli dh5[alpha], 0.5 h, 1000 µM
Escherichia coli [18] = assay: Antibacterial activity against Escherichia coli DH5alpha expressing beta lactamase OXA-24/40 in glutamine-free minimal media after 24 hrs by broth microdilution method; format: functional; details: DH5[alpha]
Escherichia coli [19] = assay: Antibacterial activity against Escherichia coli DH5alpha expressing beta lactamase SHV-5 in glutamine-free minimal media after 24 hrs by broth microdilution method; format: functional; details: DH5[alpha]
Escherichia coli [20] = assay: Antibacterial activity against Escherichia coli BL21(DE3) expressing beta lactamase TEM-1 with no leader sequence in glutamine-free minimal media after 24 hrs by broth microdilution method; format: functional
Escherichia coli [21] = assay: Bactericidal activity against Escherichia coli; format: functional, organism-based
Escherichia coli [22] = assay: Antibacterial activity against Escherichia coli BL21(DE3) expressing beta lactamase CTX-M-9 in glutamine-free minimal media after 24 hrs by broth microdilution method; format: functional
Escherichia coli [23] = assay: Antibacterial activity against Escherichia coli DH5alpha expressing beta lactamase KPC-3 in glutamine-free minimal media after 24 hrs by broth microdilution method; format: functional; details: DH5[alpha]
Escherichia coli [24] = assay: Antibacterial activity against Escherichia coli in glutamine containing nutrient broth at 0.06 to 128 uM; format: functional, organism-based
Staphylococcus aureus = assay: Bacteriostatic activity against Staphylococcus aureus in glutamine-free minimal media; format: functional, organism-based
Escherichia coli [25] = assay: Antibacterial activity against Escherichia coli DH5alpha expressing beta lactamase VIM-2 in glutamine-free minimal media after 24 hrs by broth microdilution method; format: functional; details: DH5[alpha]
Escherichia coli [26] = assay: Antibacterial activity against Escherichia coli DH5alpha expressing beta lactamase NDM-1 in glutamine-free minimal media after 24 hrs by broth microdilution method; format: functional; details: DH5[alpha]
Escherichia coli [27] = assay: Antibacterial activity against Escherichia coli BL21(DE3) expressing beta lactamase TEM-1 in glutamine-free minimal media after 24 hrs by broth microdilution method; format: functional
Escherichia coli [28] = assay: Antibacterial activity against Escherichia coli DH5alpha expressing beta lactamase SHV-12 in glutamine-free minimal media after 24 hrs by broth microdilution method; format: functional; details: DH5[alpha]
Escherichia coli [29] = assay: Antibacterial activity against Escherichia coli DH5alpha expressing beta lactamase TEM-1 in glutamine-free minimal media after 24 hrs by broth microdilution method; format: functional; details: DH5[alpha]
Escherichia coli [30] = assay: Antibacterial activity against Escherichia coli DH5alpha in glutamine-free minimal media after 24 hrs by broth microdilution method; format: functional; details: DH5[alpha]
Escherichia coli [31] = assay: Antibacterial activity against Escherichia coli BL21(DE3) expressing beta lactamase CTX-M-9 with no leader sequence in glutamine-free minimal media after 24 hrs by broth microdilution method; format: functional
Escherichia coli [32] = assay: Antibacterial activity against Escherichia coli DH5alpha expressing beta lactamase TEM-24 in glutamine-free minimal media after 24 hrs by broth microdilution method; format: functional; details: DH5[alpha]
Escherichia coli [33] = assay: Antibacterial activity against Escherichia coli DH5alpha expressing beta lactamase CTX-M-15 in glutamine-free minimal media after 24 hrs by broth microdilution method; format: functional; details: DH5[alpha]
Escherichia coli [34] = assay: Antibacterial activity against Escherichia coli BL21(DE3) in glutamine-free minimal media after 24 hrs by broth microdilution method; format: functional
Escherichia coli [35] = assay: Antibacterial activity against Escherichia coli BL21(DE3) expressing beta lactamase TEM-64 in glutamine-free minimal media after 24 hrs by broth microdilution method; format: functional
[36] = Drug metabolism assessed as 2 nM Escherichia coli DH5alpha beta lactamase TEM-1 mediated formation of benzyl penicilloic acid at 1 mM after 30 mins by HPLC analysis; format: ADME; details: escherichia coli dh5[alpha], 0.5 h, 1000 µM
[37] = Drug metabolism assessed as 1 uM Escherichia coli DH5alpha beta lactamase CTX-M-9 mediated formation of benzyl penicilloic acid at 1 mM after 5 hrs by HPLC analysis; format: ADME; details: escherichia coli dh5[alpha], 1000 µM
[38] = Drug metabolism assessed as 1 uM Escherichia coli DH5alpha beta lactamase TEM-1 mediated formation of benzyl penicilloic acid at 1 mM after 5 hrs by LCMS analysis; format: ADME; details: escherichia coli dh5[alpha], 1000 µM
[39] = Drug metabolism assessed as 2 nM Escherichia coli DH5alpha beta lactamase TEM-1 mediated formation of benzyl penicilloic acid at 1 mM after 30 mins by LCMS analysis; format: ADME; details: escherichia coli dh5[alpha], 0.5 h, 1000 µM
[40] = Drug metabolism assessed as 2 nM Escherichia coli DH5alpha beta lactamase CTX-M-9 mediated formation of benzyl penicilloic acid at 1 mM after 30 mins by LCMS analysis; format: ADME; details: escherichia coli dh5[alpha], 0.5 h, 1000 µM
[41] = Drug metabolism assessed as 2 nM Escherichia coli DH5alpha beta lactamase CTX-M-9 mediated formation of benzyl penicilloic acid at 1 mM after 30 mins by HPLC analysis; format: ADME; details: escherichia coli dh5[alpha], 0.5 h, 1000 µM
[42] = Drug metabolism assessed as 1 uM Escherichia coli DH5alpha beta lactamase CTX-M-9 mediated formation of benzyl penicilloic acid at 1 mM after 5 hrs by LCMS analysis; format: ADME; details: escherichia coli dh5[alpha], 1000 µM
[43] = Drug metabolism assessed as 1 uM Escherichia coli DH5alpha beta lactamase TEM-1 mediated formation of benzyl penicilloic acid at 1 mM after 5 hrs by HPLC analysis; format: ADME; details: escherichia coli dh5[alpha], 1000 µM

Row | Molecule | Drug metabolism [9] | Drug metabolism [10] | Drug metabolism [12] | Drug metabolism [13] | MIC90 (Escherichia coli [18]) [µM] | MIC90 (Escherichia coli [19]) [µM] | MIC90 (Escherichia coli [20]) [µM] | MIC90 (Escherichia coli [22]) [µM] | MIC90 (Escherichia coli [23]) [µM] | MIC90 (Escherichia coli [25]) [µM] | MIC90 (Escherichia coli [26]) [µM] | MIC90 (Escherichia coli [27]) [µM] | MIC90 (Escherichia coli [28]) [µM] | MIC90 (Escherichia coli [29]) [µM] | MIC90 (Escherichia coli [30]) [µM] | MIC90 (Escherichia coli [31]) [µM] | MIC90 (Escherichia coli [32]) [µM] | MIC90 (Escherichia coli [33]) [µM] | MIC90 (Escherichia coli [34]) [µM] | MIC90 (Escherichia coli [35]) [µM] | other results
1 | CC1(C)S[C@H]([C@H](NC(=O)Cc2ccccc2)C(=O)O)N[C@H]1C(=O)O | – | – | – | – | – | – | – | – | – | – | – | – | – | – | – | – | – | – | – | – | Drug metabolism [1]: metabolite_detected; Drug metabolism [2]: metabolite_detected; Drug metabolism [3]: metabolite_detected; Drug metabolism [4]: metabolite_detected; Drug metabolism [5]: metabolite_detected; Drug metabolism [6]: metabolite_detected; Drug metabolism [7]: metabolite_detected; Drug metabolism [8]: metabolite_detected
2 | N[C@@H](CC[C@]1(O)CNC1=O)C(=O)O | metabolite_detected | metabolite_detected | metabolite_detected | metabolite_detected | – | – | – | – | – | – | – | – | – | – | – | – | – | – | – | – | MIC90 (Escherichia coli [11]): > 128 µM; Drug metabolism [14]: metabolite_detected; Drug metabolism [15]: metabolite_detected; Drug metabolism [16]: metabolite_detected; Drug metabolism [17]: metabolite_detected
3 | C[C@@H](O)[C@H](NC(=O)[C@@H](N)CC[C@]1(O)CNC1=O)C(=O)O | metabolite_detected | metabolite_detected | metabolite_detected | metabolite_detected | 2 (≈ 0.579 µg/mL) | < 0.031 | 16 (≈ 4.63 µg/mL) | 4 (≈ 1.16 µg/mL) | 0.5 (≈ 0.145 µg/mL) | 2 (≈ 0.579 µg/mL) | 0.5 (≈ 0.145 µg/mL) | 4 (≈ 1.16 µg/mL) | 0.25 (≈ 0.0723 µg/mL) | 0.25 (≈ 0.0723 µg/mL) | 0.5 (≈ 0.145 µg/mL) | 8 (≈ 2.31 µg/mL) | 0.0625 (≈ 0.0181 µg/mL) | 0.125 (≈ 0.0362 µg/mL) | 8 (≈ 2.31 µg/mL) | 16 (≈ 4.63 µg/mL) | Activity (Escherichia coli [21]): inactive; Activity (Escherichia coli [24]): inactive; Activity (Staphylococcus aureus): Active; Drug metabolism [14]: metabolite_detected; Drug metabolism [15]: metabolite_detected; Drug metabolism [16]: metabolite_detected; Drug metabolism [17]: metabolite_detected
4 | CC1(C)S[C@@H]2[C@H](NC(=O)[C@H](N)c3ccccc3)C(=O)N2[C@H]1C(=O)O [AMPICILLIN] | – | – | – | – | > 128 | > 128 | > 128 | 128 (≈ 44.7 µg/mL) | > 128 | > 128 | > 128 | > 128 | > 128 | > 128 | 2 (≈ 0.699 µg/mL) | 128 (≈ 44.7 µg/mL) | > 128 | > 128 | 0.5 (≈ 0.175 µg/mL) | > 128 | –
5 | CC1(C)S[C@@H]2[C@H](NC(=O)Cc3ccccc3)C(=O)N2[C@H]1C(=O)O [PENICILLIN G] | – | – | – | – | – | – | > 128 | 128 (≈ 42.8 µg/mL) | – | – | – | > 128 | – | – | – | 128 (≈ 42.8 µg/mL) | – | – | 4 (≈ 1.34 µg/mL) | > 128 | Drug metabolism [36]: metabolite_detected; Drug metabolism [37]: metabolite_detected; Drug metabolism [38]: metabolite_detected; Drug metabolism [39]: metabolite_detected; Drug metabolism [40]: metabolite_detected; Drug metabolism [41]: metabolite_detected; Drug metabolism [42]: metabolite_detected; Drug metabolism [43]: metabolite_detected
6 | GENTAMICIN | – | – | – | – | 0.5 | < 0.25 | 1.4 | 1.4 | 0.5 | 1 | 1 | 1.4 | 0.5 | 1 | 0.25 | 1.4 | 0.5 | 1 | 1.4 | 1.4 | –
